From US20190275033A1 (Boehringer Ingelheim International GmbH, priority 2016, published 2019)
“Also recorded” adds a separate entry of the source.

What was measured:
IPF patients = details: cited from earlier work
[1] = system: Bleomycin-induced lung fibrosis in mice; test: Bleomycin-induced lung fibrosis in mice; type: in vivo
[2] = system: Silica-induced lung fibrosis in mice; test: Silica-induced lung fibrosis in mice; type: in vivo
[3] = system: Bleomycin-induced lung fibrosis in rats; test: Bleomycin-induced lung fibrosis in rats; type: in vivo
[4] = system: Skin and lung fibrosis in transgenic Fra-2 mice; test: Skin and lung fibrosis in transgenic Fra-2 mice (genetic model of SSc-ILD); type: in vivo
Description: Data are shown in Huang et al., Ann. Rheum. Dis. […] Clin. Pract. Rheumatol. 2006; 1:134-44.

[5] = system: Rheumatoid arthritis and lung fibrosis in SKG mice; test: Rheumatoid arthritis and lung fibrosis in zymosan-stimulated SKG mice (RA-ILD model)
Description: Whether this inflammation is helpful to resolve the fibrosis or detrimental remains open.
INTRODUCTION: Rheumatoid arthritis preferentially affects women and approximately […] of patients have lung abnormalities and involvement. From this group approximately 20% will develop rheumatoid arthritis-associated interstitial lung disease (RA-ILD).
RATIONALE: SKG mice, genetically prone to develop autoimmune arthritis, also develop a pulmonary interstitial pneumonia that resembles human cellular and fibrotic non-specific interstitial pneumonia.
Inflammation in the lungs was measured by BAL (bronchoalveolar lavage) cellularity and in enzymatically-digested lungs. Arthritis of joints and digits was scored weekly.

[6] = system: collagen-induced arthritis (CIA); test: Mouse model of collagen-induced arthritis (CIA); type: in vivo; details: treatment started 13 days after induction, continued for 5 weeks
[7] = system: primary human lung fibroblasts from IPF patients; test: Fibroblast to myofibroblast transformation of human lung fibroblasts; type: cell-based
Description: Nintedanib also attenuated the transformation of lung fibroblasts to myofibroblasts. Fibroblast proliferation, migration and transformation are fundamental processes in the common final path of several diseases resulting in lung fibrosis such as IPF but also SSc-ILD and RA-ILD.

[8] = system: animal models of lung fibrosis; test: Three animal models of lung fibrosis; type: in vivo
[9] = system: dermal fibroblasts from patients with SSc; test: Dermal fibroblasts from patients with SSc; type: cell-based, human
[10] = system: animal models of SSc and SSc-ILD; test: Four animal models of SSc and SSc-ILD; type: in vivo
human lung fibroblast = test: Human lung fibroblast contraction; type: cell-based; details: clinically relevant concentrations
patients with IPF = details: cited from earlier work
[11] = cited from earlier work
[12] = system: vascular endothelial growth factor receptors (VEGFRs); details: preclinical studies; cited from earlier work
[13] = system: platelet-derived growth factor receptors (PDGFRs); details: preclinical studies; cited from earlier work
[14] = system: fibroblast growth factor receptors (FGFRs); details: preclinical studies; cited from earlier work
[15] = preclinical studies; cited from earlier work
PDGFR-α = molecular target: T1, PDGFR-α (Homo sapiens, UniProt P16234); details: normal human lung fibroblasts in vitro; cited from earlier work
T1 construct: endogenous in cells; host or cells: normal human lung fibroblasts

PDGFR-β = molecular target: T2, PDGFR-β (Homo sapiens, UniProt P09619); details: normal human lung fibroblasts in vitro; cited from earlier work
T2 construct: endogenous in cells; host or cells: normal human lung fibroblasts

human lung fibroblasts = details: cited from earlier work
[16] = system: lung fibroblasts from patients with IPF; details: cited from earlier work
[17] = system: primary human lung fibroblasts from IPF patients; details: cited from earlier work
mouse models of IPF = details: in vivo; cited from earlier work
[18] = system: bleomycin-induced skin fibrosis in mice; details: therapeutic nintedanib treatment; cited from earlier work
[19] = early treatment, developing lung disease
[20] = early treatment, from week 5 after zymosan
[21] = late treatment, week 16, vs saline
[22] = preventive or therapeutic dosing regimen
[23] = human lung fibroblasts from patients with IPF and control donors
[24] = lung fibroblasts from patients with IPF

T1 sequence (P16234 24-1089): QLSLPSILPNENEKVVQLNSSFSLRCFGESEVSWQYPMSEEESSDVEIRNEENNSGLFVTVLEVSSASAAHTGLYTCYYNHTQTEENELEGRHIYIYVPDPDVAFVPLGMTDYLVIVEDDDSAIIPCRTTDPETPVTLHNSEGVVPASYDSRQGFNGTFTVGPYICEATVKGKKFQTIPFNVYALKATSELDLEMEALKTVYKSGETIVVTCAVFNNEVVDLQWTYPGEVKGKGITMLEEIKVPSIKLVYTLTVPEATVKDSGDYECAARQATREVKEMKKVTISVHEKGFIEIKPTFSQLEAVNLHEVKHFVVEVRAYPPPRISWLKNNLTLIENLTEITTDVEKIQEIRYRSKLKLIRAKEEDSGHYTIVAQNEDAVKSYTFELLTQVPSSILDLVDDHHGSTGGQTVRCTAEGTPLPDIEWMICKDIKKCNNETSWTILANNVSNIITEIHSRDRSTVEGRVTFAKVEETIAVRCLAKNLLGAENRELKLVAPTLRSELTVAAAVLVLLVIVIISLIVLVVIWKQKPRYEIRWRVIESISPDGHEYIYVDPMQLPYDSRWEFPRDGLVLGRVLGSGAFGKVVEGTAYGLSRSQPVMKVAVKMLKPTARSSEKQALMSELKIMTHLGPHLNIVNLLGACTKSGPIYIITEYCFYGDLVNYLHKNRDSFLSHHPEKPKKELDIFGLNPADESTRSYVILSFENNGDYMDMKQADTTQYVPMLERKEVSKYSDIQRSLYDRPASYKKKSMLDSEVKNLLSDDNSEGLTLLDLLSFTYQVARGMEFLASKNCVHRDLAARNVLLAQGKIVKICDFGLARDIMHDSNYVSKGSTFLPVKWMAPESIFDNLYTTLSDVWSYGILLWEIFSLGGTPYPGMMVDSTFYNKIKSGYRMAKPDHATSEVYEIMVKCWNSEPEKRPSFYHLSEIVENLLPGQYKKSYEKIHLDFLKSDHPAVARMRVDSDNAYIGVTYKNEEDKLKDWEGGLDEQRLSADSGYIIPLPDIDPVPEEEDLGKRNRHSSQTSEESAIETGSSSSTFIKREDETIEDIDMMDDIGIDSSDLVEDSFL
T2 sequence (P09619 33-1106): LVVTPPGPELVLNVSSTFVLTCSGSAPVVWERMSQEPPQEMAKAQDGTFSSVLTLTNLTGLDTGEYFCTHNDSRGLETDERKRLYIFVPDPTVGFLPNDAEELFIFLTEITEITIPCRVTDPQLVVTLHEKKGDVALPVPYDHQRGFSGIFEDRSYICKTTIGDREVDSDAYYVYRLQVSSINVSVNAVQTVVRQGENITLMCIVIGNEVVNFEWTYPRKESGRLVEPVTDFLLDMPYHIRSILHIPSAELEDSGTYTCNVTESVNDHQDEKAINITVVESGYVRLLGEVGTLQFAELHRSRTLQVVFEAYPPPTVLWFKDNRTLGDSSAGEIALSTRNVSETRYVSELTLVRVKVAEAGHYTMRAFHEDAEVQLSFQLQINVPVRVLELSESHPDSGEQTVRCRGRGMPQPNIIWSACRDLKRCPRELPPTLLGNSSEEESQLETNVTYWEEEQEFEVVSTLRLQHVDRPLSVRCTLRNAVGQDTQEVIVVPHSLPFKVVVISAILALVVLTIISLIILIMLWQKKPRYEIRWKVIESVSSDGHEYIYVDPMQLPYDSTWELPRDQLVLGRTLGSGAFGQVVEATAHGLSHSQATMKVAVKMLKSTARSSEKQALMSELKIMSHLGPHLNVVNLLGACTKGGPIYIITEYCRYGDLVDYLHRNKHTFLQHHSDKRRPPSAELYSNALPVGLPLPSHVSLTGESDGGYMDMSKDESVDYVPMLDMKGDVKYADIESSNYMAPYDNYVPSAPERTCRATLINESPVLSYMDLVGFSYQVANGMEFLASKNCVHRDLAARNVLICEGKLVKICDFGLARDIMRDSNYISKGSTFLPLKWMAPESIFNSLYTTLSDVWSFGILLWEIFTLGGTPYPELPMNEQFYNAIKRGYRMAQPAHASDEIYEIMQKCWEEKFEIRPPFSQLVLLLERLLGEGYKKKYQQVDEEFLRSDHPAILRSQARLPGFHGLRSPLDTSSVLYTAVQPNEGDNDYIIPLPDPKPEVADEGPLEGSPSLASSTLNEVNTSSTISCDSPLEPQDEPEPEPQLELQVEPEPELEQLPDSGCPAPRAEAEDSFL

Which “primary endpoint of change from baseline FVC % predicted” value (IPF patients; ASCEND Phase III trial) does the source give for `Cc1ccc(=O)n(-c2ccccc2)c1` [pirfenidone, 5-methyl-1-phenyl-2(1H)-Pyridinone] here?
Its value is “met the primary endpoint”.

And the “primary FVC lung function endpoint” value (IPF patients; international Phase III CAPACITY program)?
Its value is “efficacy on the primary FVC lung function endpoint in only one of two confirmatory trials”.

What about the “decline of vital capacity” value (IPF patients; two local trials, Japan) of the same compound?
The value was “reduced decline”.

What does the source list for `COC(=O)c1ccc2c(c1)NC(=O)/C2=C(\Nc1ccc(N(C)C(=O)CN2CCN(C)CC2)cc1)c1ccccc1` [nintedanib, 3-Z-[1-(4-(N-((4-methyl-piperazin-1-yl)-methylcarbonyl)-N-methyl-amino)-anilino)-1-phenyl-methylene]-6-methoxycarbonyl-2-indolinone]?
BALF lymphocytes ([1]; preventive treatment): cytes↓; IL-1β ([1]; preventive treatment): IL-1β↓; Lung fibrosis ([1]; preventive treatment): fibrosis↓; Lung inflammation ([1]; preventive treatment): mation↓; TIMP-1 ([1]; preventive treatment): TIMP-1↓; BALF lymphocytes ([1]; therapeutic treatment): cytes↓; IL-1β ([1]; therapeutic treatment): IL-1β↓; Lung collgen ([1]; therapeutic treatment): collgen↓; Lung fibrosis ([1]; therapeutic treatment): fibrosis↓; Lung inflammation ([1]; therapeutic treatment): mation↓; TIMP-1 ([1]; therapeutic treatment): TIMP-1↓; BALF neutrophils + lymphocytes ([2]; preventive treatment): cytes↓; IL-1β ([2]; preventive treatment): IL-1β↓; KC ([2]; preventive treatment): KC↓; Lung collagen ([2]; preventive treatment): collagen↓; Lung fibrosis ([2]; preventive treatment): fibrosis↓; Lung inflammation ([2]; preventive treatment): mation↓; TIMP-1 ([2]; preventive treatment): TIMP-1↓; BALF neutrophils + lymphocytes ([2]; therapeutic treatment): cytes↓; IL-1β ([2]; therapeutic treatment): IL-1β↓; IL-6 ([2]; therapeutic treatment): IL-6↓; KC ([2]; therapeutic treatment): KC↓; Lung collagen ([2]; therapeutic treatment): collagen↓; Lung fibrosis ([2]; therapeutic treatment): fibrosis↓; Lung inflammation ([2]; therapeutic treatment): mation↓; TIMP-1 ([2]; therapeutic treatment): TIMP-1↓; Lung fibrosis (Ashcroft score) ([3]; preventive treatment): score)↓; Lung fibrosis (Ashcroft score) ([3]; therapeutic treatment): score)↓; Lung fibrosis ([4]; Fra2+/− mice): normalises; lung vascular remodelling ([4]; Fra2+/− mice): normalises; skin fibrosis ([4]; Fra2+/− mice): normalises; Dermal thickness ([4]; therapeutic treatment): thickness↓; ECM ([4]; therapeutic treatment): ECM↓; Hydroxiproline ([4]; therapeutic treatment): Hydroxiproline↓; MVEC apoptosis ([4]; therapeutic treatment): apoptosis↑; Occluded vessels ([4]; therapeutic treatment): vessels↓; Skin and lung myofibroblast count ([4]; therapeutic treatment): count↓; VSMC ([4]; therapeutic treatment): VSMC↓; Vessel wall thickness ([4]; therapeutic treatment): thickness↓; inflammation in the lung ([5]; SKG mice treated with zymosan): slight but selective inflammation; Arthritic score ([5]; early treatment): score↓; Lung tissue B220 + B-cells ([5]; early treatment): B-cells↑; Lung tissue CD103 + Dendritic cells ([5]; early treatment): cells↑; Lung tissue Monocytes ([5]; early treatment): Monocytes↓; Lung tissue Neutrophils ([5]; early treatment): Neutrophils↑; static lung compliance ([5]; early treatment): ance↑; lymphocytes in the BAL [5, 19]: trend towards increased; neutrophils in the BAL [5, 19]: trend towards increased; total number of alveolar macrophages ([5]; early treatment, developing lung disease, vs saline): no significant difference; lung collagen deposition (hydroxyproline) [5, 20]: no effect; also recorded: not significantly altered; static lung compliance (lung function) [5, 20]: improved lung function; also recorded: increase in static lung compliance; arthritis score / joint swelling ([5]; early treatment, from week 5 after zymosan (week 5-11), 60 mg/kg daily gavage, vs saline, 60 mg/kg): attenuated arthritis pathology; also recorded: significant reduction in their development of arthritis; also recorded: significantly reduced; also recorded: reversal of joint swelling; lung collagen (hydroxyproline) / pulmonary fibrosis ([5]; late (therapeutic) treatment for six weeks, established arthritis): reduction of collagen deposition; also recorded: significant reduction of lung collagen; also recorded: significantly reduces; also recorded: significant decrease; BAL lymphocytes and neutrophils ([5]; late treatment): neutrophils↑; Lung hydroxiproline ([5]; late treatment): hydroxiproline↓; Lung tissue inflammatory macrophages ([5]; late treatment): macrophages↑; static lung compliance ([5]; late treatment, established lung disease): no significant difference; arthritis score / joint swelling ([5]; late treatment, from week 10 after zymosan (week 10-16), established disease, vs saline): reduction of the arthritis score if the score was normalized to the last measurement before the start of the nintedanib treatment; also recorded: not altered; also recorded: slightly increased the resolution of joint swelling; alveolar macrophages (BAL) ([5]; late treatment, vs saline): no significant difference; number of lymphocytes (BAL) ([5]; late treatment, vs saline): small but significant elevation; number of neutrophils (BAL) ([5]; late treatment, vs saline): small but significant elevation; total number of BAL cells ([5]; late treatment, vs saline): no significant difference; percent survival [5, 21]: no significant change; weight [5, 21]: no significant change; Arthritic score ([5]; late treatment, if the data is normalised to the last scoring before the nintedanib treatment starts): score↓*; B220+ B-cells ([5]; lungs, six weeks of nintedanib): small but significant increase; CD4+ T-cells ([5]; lungs, six weeks of nintedanib): small but significant increase; macrophage numbers ([5]; lungs, six weeks of nintedanib): no changes; lung dendritic cells ([5]; nintedanib beginning at week 5): significant increase; lung neutrophils ([5]; nintedanib beginning at week 5): significant increase; increase in lung neutrophils ([5]; nintedanib beginning at week 11): not at week 11; arthritis score [6]: no attenuating effect; transformation of lung fibroblasts to myofibroblasts [7]: attenuated; accumulation of lymphocytes in the bronchoalveolar lavage fluid (BALF) ([8]; in vivo): attenuated; chemokine CXCL1/KC in lung tissue ([8]; in vivo): reduced; collagen content in lung tissue ([8]; in vivo): reduced; interleukin (IL)-10 in lung tissue ([8]; in vivo): reduced; mRNA expression of procollagen 1 ([8]; in vivo): blocked; mRNA expression of transforming growth factor (TGF)-β1 ([8]; in vivo): blocked; tissue inhibitor of metalloproteinases (TIMP)-1 in lung tissue ([8]; in vivo): reduced; histology score of fibrosis in lung sections [8, 22]: reduced; histology score of granuloma formation in lung sections [8, 22]: reduced; histology score of inflammation in lung sections [8, 22]: reduced; expression of extracellular matrix markers [9]: reduced; migration [9]: inhibited; proliferation [9]: inhibited; transformation to myofibroblast [9]: attenuated; number of vascular smooth muscle cells ([10]; an animal model of SSc): reducing; occluded pulmonary vessels ([10]; an animal model of SSc): reducing; pulmonary vascular remodelling ([10]; an animal model of SSc): effectively attenuated; Lung fibrosis ([10]; in vivo): effectively attenuated; dermal microvascular endothelial cell apoptosis ([10]; in vivo): reduced; dermal thickening ([10]; in vivo): reduced; extracellular matrix deposition in skin and lung ([10]; in vivo): reduced; myofibroblast accumulation in skin and lung ([10]; in vivo): attenuated; skin fibrosis ([10]; in vivo): effectively attenuated; human lung fibroblast contraction (human lung fibroblast): inhibits; efficacy versus placebo (patients with IPF; INPULSIS and TOMORROW trials, 150 mg twice daily): positive results; reduction of the annual rate of decline in FVC (mL/year) (patients with IPF; both INPULSIS trials, 150 mg twice daily versus placebo): approximately 50%; elimination via biliary/faecal excretion ([11]; human, in vivo): > 90%; exposure ([11]; patients with hepatic impairment (Child Pugh A, Child Pugh B)): increased; inhibition of VEGFRs [12]: highly potent; inhibition of PDGFRs [13]: highly potent; inhibition of FGFRs [14]: highly potent; oral bioavailability [15]: orally bioavailable; PDGFR-α activation (PDGFR-α): inhibit; PDGFR-β activation (PDGFR-β): inhibit; proliferation of human lung fibroblasts from patients with IPF (human lung fibroblasts): inhibited; FGF-2-induced proliferation (human lung fibroblasts; [23]): inhibit; VEGF-induced proliferation (human lung fibroblasts; [23]): inhibit; proliferation of normal human lung fibroblasts (human lung fibroblasts; in vitro): inhibit; migration of human lung fibroblasts from patients with IPF [16]: inhibited; FGF-2-stimulated migration [16, 24]: attenuated; PDGF-stimulated migration [16, 24]: attenuated; TGF-β-induced fibroblast to myofibroblast transformation [17]: inhibited; fibrosis in histological analyses (mouse models of IPF): reduced; granuloma formation in histological analysis of lung tissue (mouse models of IPF): reduced; inflammation in histological analysis of lung tissue (mouse models of IPF): reduced; inflammatory cytokines (mouse models of IPF): reductions; lymphocyte counts in the bronchoalveolar lavage fluid (mouse models of IPF): significant reductions; neutrophil counts in the bronchoalveolar lavage fluid (mouse models of IPF): significant reductions; total lung collagen (mouse models of IPF): significant reductions; bleomycin-induced skin fibrosis [18]: attenuation
